Columns and labels:
NIH3T3 [1] = test: Concentration of compound inhibiting Pgp-mediated DNM transport in NIH3T3 cells transfected with human MDR1 protein; format: functional, cell-based
NIH3T3 [2] = tested on: NIH3T3
NIH3T3 [3] = tested on: NIH3T3; remark: listed apart in the source
NIH3T3 [4] = tested on: NIH3T3; remark: listed apart in the source
NIH3T3 [5] = tested on: NIH3T3; remark: listed apart in the source
NIH3T3 [6] = tested on: NIH3T3; remark: listed apart in the source
NIH3T3 [7] = tested on: NIH3T3; remark: listed apart in the source

SMILES: CC(=O)OC[C@]12[C@H](OC(=O)c3ccccc3)C(=O)[C@@H]3[C@@H](OC(C)=O)[C@]1(OC3(C)C)[C@@](C)(O)C[C@H](OC(C)=O)[C@@H]2OC(=O)c1ccccc1
- Ki (NIH3T3 [1]): 3.01 µM

SMILES: CC(=O)O[C@H]1C[C@](C)(O)[C@]23OC(C)(C)[C@H]([C@H](OC(=O)c4ccccc4)[C@H](OC(=O)c4ccccc4)[C@]2(C)[C@H]1OC(=O)c1ccccc1)[C@H]3OC(C)=O
- Reversal ability (NIH3T3 [2]): 12.72
- Reversal ability (NIH3T3 [3]): 16.55
- Reversal ability (NIH3T3 [4]): 8.26
- Reversal ability (NIH3T3 [5]): 87.04
- Ki (NIH3T3 [1]): 0.913 µM
- Reversal ability (NIH3T3 [6]): 90.39
- Reversal ability (NIH3T3 [7]): 9.55

SMILES: CC(=O)OC[C@]12[C@H](OC(C)=O)C(=O)[C@@H]3[C@@H](OC(C)=O)[C@]1(OC3(C)C)[C@@](C)(O)[C@@H](OC(C)=O)[C@H](OC(C)=O)[C@@H]2OC(=O)c1ccccc1
- Ki (NIH3T3 [1]): 6.52 µM

SMILES: CC(=O)OC[C@]12[C@@H](OC(=O)c3ccccc3)C[C@@H]3[C@@H](OC(C)=O)[C@]1(OC3(C)C)[C@@](C)(O)C[C@H](OC(C)=O)[C@@H]2OC(C)=O
- Ki (NIH3T3 [1]): 4.39 µM

SMILES: CC(=O)OC[C@]12[C@H](OC(=O)c3ccccc3)C(=O)[C@@H]3[C@@H](OC(C)=O)[C@]1(OC3(C)C)[C@H](C)C[C@H](OC(C)=O)[C@@H]2OC(C)=O
- Ki (NIH3T3 [1]): 2.54 µM

SMILES: CC(=O)O[C@@H]1[C@H]2[C@H](O)[C@H](OC(=O)c3ccccc3)[C@]3(C)[C@@H](OC(=O)c4ccccc4)[C@@H](OC(=O)c4ccccc4)C[C@](C)(O)[C@@]13OC2(C)C
- Reversal ability (NIH3T3 [2]): 15.86
- Reversal ability (NIH3T3 [3]): 5.38
- Reversal ability (NIH3T3 [4]): 6.32
- Reversal ability (NIH3T3 [5]): 41.23
- Ki (NIH3T3 [1]): 1.21 µM
- Reversal ability (NIH3T3 [6]): 57.32
- Reversal ability (NIH3T3 [7]): 11.13

SMILES: CC(=O)OC[C@]12[C@H](OC(=O)c3ccccc3)C(=O)[C@@H]3[C@@H](OC(C)=O)[C@]1(OC3(C)C)[C@@](C)(O)C[C@H](OC(=O)c1ccccc1)[C@@H]2OC(=O)c1ccccc1
- Reversal ability (NIH3T3 [2]): 16.64
- Reversal ability (NIH3T3 [3]): 7.31
- Reversal ability (NIH3T3 [4]): 9.93
- Reversal ability (NIH3T3 [5]): 8.09
- Ki (NIH3T3 [1]): 1.03 µM
- Reversal ability (NIH3T3 [6]): 33.1
- Reversal ability (NIH3T3 [7]): 15.41

SMILES: CC(=O)OC[C@]12[C@H](OC(=O)c3ccccc3)C(=O)[C@@H]3[C@@H](OC(C)=O)[C@]1(OC3(C)C)[C@H](C)C[C@H](OC(C)=O)[C@@H]2O
- Ki (NIH3T3 [1]): 18.4 µM

SMILES: CC(=O)O[C@H]1C[C@](C)(O)[C@]23OC(C)(C)[C@H]([C@H](OC(=O)c4ccccc4)[C@H](OC(=O)c4ccccc4)[C@]2(CO)[C@H]1OC(C)=O)[C@H]3OC(C)=O
- Ki (NIH3T3 [1]): 7.04 µM

SMILES: CC(=O)OC[C@]12[C@H](OC(C)=O)C(=O)[C@@H]3[C@@H](OC(C)=O)[C@]1(OC3(C)C)[C@H](C)C[C@H](OC(C)=O)[C@@H]2OC(=O)c1ccccc1
- Ki (NIH3T3 [1]): 5.74 µM

SMILES: CC(=O)OC[C@]12[C@H](OC(=O)c3ccccc3)C(=O)[C@@H]3[C@@H](O)[C@]1(OC3(C)C)[C@@](C)(O)C[C@H](OC(C)=O)[C@@H]2OC(=O)c1ccccc1
- Ki (NIH3T3 [1]): 3.97 µM

SMILES: CC(=O)OC[C@]12[C@@H](OC(=O)c3ccccc3)C[C@@H]3[C@@H](OC(C)=O)[C@]1(OC3(C)C)[C@H](C)C[C@H](OC(C)=O)[C@@H]2OC(C)=O
- Ki (NIH3T3 [1]): 2.36 µM

SMILES: CC(=O)OC[C@]12[C@@H](OC(=O)c3ccccc3)[C@@H](OC(=O)c3ccccc3)[C@@H]3[C@@H](OC(C)=O)[C@]1(OC3(C)C)[C@@](C)(O)C[C@H](OC(C)=O)[C@@H]2OC(C)=O
- Reversal ability (NIH3T3 [2]): 11.13
- Reversal ability (NIH3T3 [3]): 6.23
- Reversal ability (NIH3T3 [4]): 4.26
- Reversal ability (NIH3T3 [5]): 102.17
- Ki (NIH3T3 [1]): 1.74 µM
- Reversal ability (NIH3T3 [6]): 233.6
- Reversal ability (NIH3T3 [7]): 10.78

SMILES: CC(=O)OC[C@]12[C@H](OC(C)=O)C(=O)[C@@H]3[C@@H](OC(C)=O)[C@]1(OC3(C)C)[C@H](C)C[C@H](OC(C)=O)[C@@H]2OC(C)=O
- Ki (NIH3T3 [1]): 9.83 µM

SMILES: CC(=O)OC[C@]12[C@@H](OC(=O)c3ccccc3)[C@@H](OC(=O)c3ccccc3)[C@@H]3[C@@H](OC(C)=O)[C@]1(OC3(C)C)[C@H](C)C[C@H](OC(C)=O)[C@@H]2OC(C)=O
- Ki (NIH3T3 [1]): 1.71 µM

SMILES: CC(=O)OC[C@]12[C@H](OC(=O)c3ccccc3)C(=O)[C@@H]3[C@@H](OC(C)=O)[C@]1(OC3(C)C)[C@H](C)C[C@H](OC(C)=O)[C@@H]2OC(=O)c1ccccc1
- Reversal ability (NIH3T3 [2]): 11.75
- Reversal ability (NIH3T3 [3]): 5.72
- Reversal ability (NIH3T3 [4]): 4.21
- Reversal ability (NIH3T3 [5]): 213.64
- Ki (NIH3T3 [1]): 1.63 µM
- Reversal ability (NIH3T3 [6]): 233.37
- Reversal ability (NIH3T3 [7]): 6.21

SMILES: COc1ccc(CCN(C)CCCC(C#N)(c2ccc(OC)c(OC)c2)C(C)C)cc1OC (configuration not stated)
- Reversal ability (NIH3T3 [2]): 10.2
- Reversal ability (NIH3T3 [3]): 6.21
- Reversal ability (NIH3T3 [4]): 6.12
- Reversal ability (NIH3T3 [5]): 13.18
- Reversal ability (NIH3T3 [6]): 18.76
- Reversal ability (NIH3T3 [7]): 9.55
